From PMC4926326, “Synthesis, Biological Activity, and Apoptotic Properties of NO-Donor/Enmein-Type ent-Kauranoid Hybrids” (International Journal of Molecular Sciences, 2016) come the findings set out here.

As usually defined, the IC50 is the concentration needed to halve the response being measured. In general, MIC refers to the smallest concentration in the dilution series that meets the test's criterion for growth inhibition. In general, melting point refers to the temperature, or range, at which the solid turns liquid.

The test system of data set [1] is Bacillus subtilis (CMCC 63501). Put plainly: Antibacterial assay, microbroth dilution MIC. The conditions noted are these: for MIC: Bacillus subtilis, read-out: MIC B. subtilis. In kind it is cell-based. The text has this: (§1) The antibacterial activity of NO donor/enmein-type ent-kauranoid hybrids 9a–i against the Gram-negative bacterium Escherichia coli (ATCC 25922), Gram-positive bacterium Staphylococcus aureus (ATCC 29213) and Bacillus subtilis (CMCC 63501), and the fungus Monilia albicans (ATCC 10231) was first disclosed and summarized in Table 1. […] Thus, the introduction of NO-donor substituent groups at the 14-position of enmein-type 6,7-seco-ent-kauranoid could improve antimicrobial activity against S. aureus and B. subtilis.
(§2) The minimal inhibitory concentrations (MICs) were carried out by microbroth dilution method described by the Clinical Laboratory Standards Institute. A stock solution of all the target compounds was prepared with DMSO-medium (1:2), and then graded quantities of the test compounds were diluted with medium. The specified concentration suspension of fungus and bacterium contained approximately 10^3, and 10^5 CFU/mL was added into microtitration plates. The inoculated 96-well plates were incubated at 35 °C for 18 h. MIC was defined as the lowest concentrations that prevented visible growth of the bacteria.
On the technique in general: Broth dilution looks for growth in wells or tubes with falling amounts of substance.

Data set [2] concerns Escherichia coli (ATCC 25922). Put plainly: Antibacterial assay, microbroth dilution MIC. The data set is classed as cell-based. The conditions noted are these: for MIC: Escherichia coli, read-out: MIC E. coli.
Source text: as §1, §2

Data set [3] has as its system Staphylococcus aureus (ATCC 29213). Put plainly: Antibacterial assay, microbroth dilution MIC. The data set is classed as cell-based. The settings on record: for MIC: Staphylococcus aureus, read-out: MIC S. aureus.
Source text: as §1, §2

Data set [4] has as its system CaEs-17 esophageal cancer cell line. Put plainly: MTT antiproliferative assay. The data set is classed as cell-based. The conditions noted are these: Homo sapiens, read-out: IC50 CaEs-17. How it is done: (§3) The antiproliferative activity of 9a–i against four human cancer cell lines K562 leukemia cell line, MGC-803 gastric cancer cell line, CaEs-17 esophageal cancer cell line, and Bel-7402 hepatoma cell line, and human normal liver cells L-02 was evaluated by MTT assay (Table 2).
(§4) MTT assay was developed to monitor mammalian cell survival and proliferation in vitro [32]. CaEs-17 cells (K562, Bel-7402 and MGC-803 cells) from American Type Culture Collection (ATCC, Manassas, VA, USA) were cultivated in RPMI-1640 medium supplemented with 5% fetal bovine serum (v/v), 100 U/mL penicillin, and […] streptomycin. Cells (5 × 10^4 cell/mL) at the log phase of their growth cycle were added to each well of a 96-well plate (100 µL/well) and incubated for 24 h at 37 °C in a humidified atmosphere of 5% CO2. Then, cells were treated with or without test compounds in different concentrations. After 72 h, 5 mg/mL MTT solution (20 µL per well) was added. Cells were incubated at 37 °C. After 4 h, MTT solution was removed and DMSO was added to each well (150 µL). Ten minutes later at room temperature, the optical density (OD) values were measured at the wavelength of 490 nm on a Microplate Reader NO. 550 (BIO-RAD Instruments Inc., Hercules, CA, USA). In this experiment, 10 µg/mL of Taxol was used as the positive control and 0.1% DMSO was used as the negative reference.
In general terms: Tetrazolium dyes change colour on reduction, which living cells bring about.

Data set [5] concerns MGC-803 gastric cancer cell line. Put plainly: MTT antiproliferative assay. The data set is classed as cell-based, human. The settings on record: Homo sapiens, MGC-803, 72 h, read-out: IC50 MGC-803. Here is the method: as §3, §4
In data set [6] the test system is Bel-7402 hepatoma cell line. Put plainly: MTT antiproliferative assay. In kind it is cell-based, human. The conditions noted are these: for IC50: Homo sapiens, read-out: IC50 Bel-7402; for SI (selectivity index): SI = IC50, L-02/IC50, Bel-7402. How it is done: as §3, §4
The next data set concerns K562 leukemia cell line. Put plainly: MTT antiproliferative assay. In kind it is cell-based, human. The conditions noted are these: Homo sapiens, K562, 72 h, read-out: IC50 K562. Here is the method:
as §3, §4

Data set [7] concerns Monilia albicans (ATCC 10231). Put plainly: Antifungal assay, microbroth dilution MIC. In kind it is cell-based. The conditions noted are these: Candida albicans, read-out: MIC M. albicans.
Source text: as §1, §2

Data set [8] has as its system human normal liver cells L-02. Put plainly: MTT assay on normal cells. The data set is classed as cell-based. The settings on record: 72 h, read-out: IC50 L-02. Here is the method: as §3, §4
The mark [9] stands for this setting: CaEs17, MTT, 72 h, mean ± SD of three experiments.
Setting [10] is: MTT, 72 h, mean ± SD of three experiments.
Setting [11] is: Bel-7402, MTT, 72 h, mean ± SD of three experiments.
The mark [12] stands for this setting: MTT, normal liver cells, mean ± SD of three experiments.

In brackets after ≈: the same amount, converted by molar mass. Like-named read-outs stand apart in the source and are kept apart here.

As for `O=C(N[C@H](CO)[C@H](O)c1ccc([N+](=O)[O-])cc1)C(Cl)Cl` [Chloromycetin, reference compound], the “MIC B. subtilis” value in [1] (35 °C, 18 h) was found to be 8 µg/mL (≈ 24.8 µM). Besides, the “MIC E. coli” value in [2] (35 °C, 18 h) amounted to 4 µg/mL (≈ 12.4 µM). In addition, in data set [3] (35 °C, 18 h), the “MIC S. aureus” value is 4 µg/mL (≈ 12.4 µM).
For the molecule `C=C1C(=O)[C@]23[C@H](O)[C@H]1CC[C@H]2[C@@]12CO[C@]3(O)[C@@H](O)[C@@H]1C(C)(C)CC[C@@H]2O` [Compound 7, oridonin, reference compound], the IC50 in data set [4] (setting [9]) is 11 ± 1.02 µM; in data set [5] (setting [10]), 5.69 ± 0.39 µM; in [6] (setting [11]), 7.48 ± 0.53 µM; in the data set with K562 leukemia cell line (setting [10]), 4.76 ± 0.32 µM; in [8] (setting [12]), 18.3 ± 0.81 µM. Besides, in data set [6], the “SI (selectivity index)” value is listed as 2.4. Also, the MIC is 32 µg/mL (≈ 87.8 µM) in data set [1] (CMCC63501, 35 °C, 18 h); more than 100 µg/mL in data set [2] (ATCC25922, 35 °C, 18 h); 32 µg/mL (≈ 87.8 µM) in [3] (ATCC29213, 35 °C, 18 h); more than 100 µg/mL in [7] (ATCC10231, 35 °C, 18 h).
Take `C=C1C(=O)[C@@]23C(=O)O[C@H]4CCC(C)(C)[C@H]5[C@H](O)OC[C@@]45[C@@H]2CC[C@@H]1[C@H]3O` [Compound 8]: the IC50 in data set [4] (CaEs17, 72 h) came out at 30.8 ± 2.09 µM; in [5] it was 14.2 ± 1.22 µM; in data set [6] (Bel-7402, 72 h), 33 ± 2.19 µM; in the data set on K562 leukemia cell line, 8.11 ± 0.76 µM; in [8], 24.4 ± 1.59 µM. Also, the MIC in data set [1] (CMCC63501, 18 h) is more than 100 µg/mL; in data set [2] (ATCC25922, 18 h), more than 100 µg/mL; in data set [3] (ATCC29213, 18 h), more than 100 µg/mL; in data set [7] (ATCC10231, 18 h), more than 100 µg/mL.
As to `C=C1C(=O)[C@@]23C(=O)O[C@H]4CCC(C)(C)[C@H]5[C@H](O)OC[C@@]45[C@@H]2CC[C@@H]1[C@H]3OC(=O)CCC(=O)OCCOc1no[n+]([O-])c1S(=O)(=O)c1ccccc1` [Compound 9a], the melting point lay in the range of 92 to 94 °C. Besides, in data set [4] (setting [9]), the IC50 worked out at 5.12 ± 0.42 µM. Further, the 50% inhibitory concentration (IC50) in data set [5] (setting [10]) stood at 1.83 ± 0.16 µM. Besides, the IC50 in data set [6] (setting [11]) came to 1.33 ± 0.1 µM. The “SI (selectivity index)” value in [6] is on record as 7.7. Further, in the data set with K562 leukemia cell line (setting [10]), the IC50 was found to be 2.47 ± 0.16 µM. Further, in [1] (CMCC63501, 35 °C, 18 h), the minimum inhibitory concentration (MIC) came out at 64 µg/mL (≈ 87.6 µM). The MIC in data set [2] (ATCC25922, 35 °C, 18 h) was more than 100 µg/mL. Moreover, the minimal inhibitory concentration (MIC) in data set [3] (ATCC29213, 35 °C, 18 h) was found to be 16 µg/mL (≈ 21.9 µM). In addition, the MIC in [7] (ATCC10231, 35 °C, 18 h) is more than 100 µg/mL. Also, the 50% inhibitory concentration (IC50) in data set [8] (setting [12]) was determined as 10.4 ± 0.61 µM.
In the case of `C=C1C(=O)[C@@]23C(=O)O[C@H]4CCC(C)(C)[C@H]5[C@H](O)OC[C@@]45[C@@H]2CC[C@@H]1[C@H]3OC(=O)CCCC(=O)OCCOc1no[n+]([O-])c1S(=O)(=O)c1ccccc1` [Compound 9b], the melting point was in the range of 88 to 89 °C. In [4] (setting [9]), the IC50 stood at 4.83 ± 0.3 µM. The concentration for half-maximal inhibition (IC50) in data set [5] (setting [10]) is 1.62 ± 0.08 µM. Also, the IC50 in data set [6] (setting [11]) was 1.2 ± 0.08 µM. For the same molecule, the “SI (selectivity index)” value in data set [6] is given as 13.9. The half-inhibitory concentration (IC50) in the data set with K562 leukemia cell line (setting [10]) worked out at 2.31 ± 0.21 µM. The MIC in data set [1] (CMCC63501, 35 °C, 18 h) was found to be 2 µg/mL (≈ 2.69 µM). Further, in data set [2] (ATCC25922, 35 °C, 18 h), the MIC is more than 100 µg/mL. Moreover, in data set [3] (ATCC29213, 35 °C, 18 h), the MIC came to 4 µg/mL (≈ 5.37 µM). The MIC in data set [7] (ATCC10231, 35 °C, 18 h) was more than 100 µg/mL. Moreover, the IC50 in data set [8] (setting [12]) came to 16.7 ± 0.17 µM.
Regarding `C=C1C(=O)[C@@]23C(=O)O[C@H]4CCC(C)(C)[C@H]5[C@H](O)OC[C@@]45[C@@H]2CC[C@@H]1[C@H]3OC(=O)c1ccccc1C(=O)OCCOc1no[n+]([O-])c1S(=O)(=O)c1ccccc1` [Compound 9c], the melting point lay in the range of 137 to 139 °C. For the same molecule, in [4] (setting [9]), the IC50 was 3.76 ± 0.37 µM. Also, the 50% inhibitory concentration (IC50) in data set [5] (setting [10]) came out at 1.34 ± 0.13 µM. The 50% inhibitory concentration (IC50) in [6] (setting [11]) worked out at 0.83 ± 0.06 µM. For the same molecule, the “SI (selectivity index)” value in [6] is 23.9. Also, the concentration for half-maximal inhibition (IC50) with K562 leukemia cell line (setting [10]) was 1.93 ± 0.1 µM. Besides, in data set [1] (CMCC63501, 35 °C, 18 h), the MIC came to 4 µg/mL (≈ 5.14 µM). In [2] (ATCC25922, 35 °C, 18 h), the MIC is more than 100 µg/mL. In addition, in [3] (ATCC29213, 35 °C, 18 h), the MIC amounted to 8 µg/mL (≈ 10.3 µM). Also, the MIC in data set [7] (ATCC10231, 35 °C, 18 h) was more than 100 µg/mL. Also, the half-maximal inhibitory concentration (IC50) in data set [8] (setting [12]) stood at 19.87 ± 0.18 µM.
As for `OC(Cn1cncn1)(Cn1cncn1)c1ccc(F)cc1F` [Fluconazole, reference compound], the MIC in [7] (ATCC10231, 35 °C, 18 h) came out at 4 µg/mL (≈ 13.1 µM).
For `CC(=O)O[C@H]1C(=O)[C@@]2(C)[C@H]([C@H](OC(=O)c3ccccc3)[C@]3(O)C[C@H](OC(=O)[C@H](O)[C@@H](NC(=O)c4ccccc4)c4ccccc4)C(C)=C1C3(C)C)[C@]1(OC(C)=O)CO[C@@H]1C[C@@H]2O` [Taxol, reference compound], the half-inhibitory concentration (IC50) was found to be 0.43 ± 0.03 µM in data set [4] (setting [9]); 0.85 ± 0.06 µM in data set [5] (setting [10]); 1.89 ± 0.09 µM in data set [6] (setting [11]); 0.41 ± 0.02 µM with K562 leukemia cell line (setting [10]); 3.73 ± 0.17 µM in data set [8] (setting [12]). For the same molecule, in data set [6], the “SI (selectivity index)” value is on record as 1.9.
